In article PMC11062899, “De novo development of small cyclic peptides that are orally bioavailable” (Nature Chemical Biology, 2023):

Molecular target: human α-thrombin (Homo sapiens, UniProt P00734)
Assay: Sub-library screen for active and permeable cyclic peptides (PAMPA plus thrombin inhibition)
Format: biochemical
Conditions: crude, slopes normalized to DMSO; for Residual thrombin activity: Top sample: PAMPA acceptor well after 14 h, 5 μM donor; for Residual thrombin activity: Equilibrated sample: donor sample diluted to theoretical equilibrium (1 μM in assay)
How it was run: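 Acylated cyclic peptides at 5 μM in PBS pH 7.4 with 5% DMSO were run through PAMPA for 14 h at room temperature. Acceptor wells and a diluted donor sample at 3 μM, representing maximum permeability, were preincubated 10 min with human α-thrombin (6 nM stock). Z-Gly-Gly-Arg-AMC (150 μM stock) fluorescence was then read for 30 min at 25 °C, and inhibition was taken against a no-peptide control.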

| Residual thrombin activity: Top sample | Residual thrombin activity: Equilibrated sample | SMILES |
| --- | --- | --- |
| 97.6 | 73.7 | Cc1cccc(C[C@@H]2NC(=O)[C@@H](NC(=O)c3ccc(Cl)s3)CCSCCS(=O)(=O)CCSCCNC(=O)C[C@H]3CCCN3C2=O)c1 [C2-X37-L2] |
| 100.6 | 94.8 | Cc1cccc(C[C@@H]2NC(=O)[C@@H](NC(=O)c3ccc(Cl)s3)CCSCc3ccc(cc3)CSCCNC(=O)C[C@H]3CCCN3C2=O)c1 [C2-X37-L3] |
| 90.6 | 77.5 | Cc1cccc(C[C@@H]2NC(=O)[C@@H](NC(=O)c3ccc(Cl)s3)CCSC/C=C/CSCCNC(=O)C[C@H]3CCCN3C2=O)c1 [C2-X37-L4] |
| 104.6 | 95.0 | Cc1cccc(C[C@@H]2NC(=O)[C@@H](NC(=O)c3ccc(Cl)s3)CCSCc3cccc(c3)CSCCNC(=O)C[C@H]3CCCN3C2=O)c1 [C2-X37-L5] |
| 99.9 | 83.6 | Cc1cccc(C[C@@H]2NC(=O)[C@@H](NC(=O)c3ccc(Cl)s3)CCSCC(=O)CSCCNC(=O)C[C@H]3CCCN3C2=O)c1 [C2-X37-L7] |
| 81.8 | 27.6 | O=C1C[C@H]2CCCN2C(=O)[C@H](Cc2ccccc2)NC(=O)[C@@H](NC(=O)c2ccc(Cl)s2)CCCSCCS(=O)(=O)CCSCCN1 [C3-X5-L2] |
| 86.8 | 50.1 | O=C1C[C@H]2CCCN2C(=O)[C@H](Cc2ccccc2)NC(=O)[C@@H](NC(=O)c2ccc(Cl)s2)CCCSCc2ccc(cc2)CSCCN1 [C3-X5-L3] |
| 74.4 | 55.6 | O=C1C[C@H]2CCCN2C(=O)[C@H](Cc2ccccc2)NC(=O)[C@@H](NC(=O)c2ccc(Cl)s2)CCCSCc2ccccc2CSCCN1 [C3-X5-L6] |
| 105.2 | 103.4 | O=C1C[C@H]2CCCN2C(=O)[C@@H](Cc2ccccc2)NC(=O)[C@@H](NC(=O)c2ccc(Cl)s2)CCCSCc2cccc(c2)CSCCN1 [C3-X31-L5] |
| 101.7 | 98.3 | CN1C(=O)[C@@H](NC(=O)c2ccc(Cl)s2)CCCSCc2ccc(cc2)CSCCNC(=O)C[C@H]2CCCN2C(=O)[C@@H]1Cc1ccccc1 [C3-X32-L3] |
| 102.9 | 98.1 | CN1C(=O)[C@@H](NC(=O)c2ccc(Cl)s2)CCCSCC(=O)CSCCNC(=O)C[C@H]2CCCN2C(=O)[C@@H]1Cc1ccccc1 [C3-X32-L7] |
| 99.7 | 94.6 | COc1ccc(C[C@@H]2NC(=O)[C@@H](NC(=O)c3ccc(Cl)s3)CCCSCc3cccc(n3)CSCCNC(=O)C[C@H]3CCCN3C2=O)cc1 [C3-X33-L1] |
| 102.2 | 103.1 | COc1ccc(C[C@@H]2NC(=O)[C@@H](NC(=O)c3ccc(Cl)s3)CCCSCc3ccc(cc3)CSCCNC(=O)C[C@H]3CCCN3C2=O)cc1 [C3-X33-L3] |
| 95.1 | 92.6 | COc1ccc(C[C@@H]2NC(=O)[C@@H](NC(=O)c3ccc(Cl)s3)CCCSCc3ccccc3CSCCNC(=O)C[C@H]3CCCN3C2=O)cc1 [C3-X33-L6] |
| 103.1 | 99.9 | COc1ccc(C[C@@H]2NC(=O)[C@@H](NC(=O)c3ccc(Cl)s3)CCCSCC(=O)CSCCNC(=O)C[C@H]3CCCN3C2=O)cc1 [C3-X33-L7] |
| 99.1 | 94.7 | O=C1C[C@H]2CCCN2C(=O)[C@H](Cc2ccc(Cl)cc2)NC(=O)[C@@H](NC(=O)c2ccc(Cl)s2)CCCSCc2cccc(n2)CSCCN1 [C3-X34-L1] |
| 103.1 | 94.9 | O=C1C[C@H]2CCCN2C(=O)[C@H](Cc2ccc(Cl)cc2)NC(=O)[C@@H](NC(=O)c2ccc(Cl)s2)CCCSCc2cccc(c2)CSCCN1 [C3-X34-L5] |
| 94.7 | 78.6 | O=C1C[C@H]2CCCN2C(=O)[C@H](Cc2ccc(Cl)cc2)NC(=O)[C@@H](NC(=O)c2ccc(Cl)s2)CCCSCc2ccccc2CSCCN1 [C3-X34-L6] |
| 103.7 | 93.3 | O=C1CSCCC[C@H](NC(=O)c2ccc(Cl)s2)C(=O)N[C@@H](Cc2ccc(Cl)cc2)C(=O)N2CCC[C@@H]2CC(=O)NCCSC1 [C3-X34-L7] |

The next lines start with the molecule.

| SMILES | Residual thrombin activity: Top sample | Residual thrombin activity: Equilibrated sample |
| --- | --- | --- |
| Cc1cccc(C[C@@H]2NC(=O)[C@@H](NC(=O)c3ccc(Cl)s3)CCSCc3ccccc3CSCCNC(=O)C[C@H]3CCCN3C2=O)c1 [C2-X37-L6] | 97.5 | 96.9 |
| O=C1C[C@H]2CCCN2C(=O)[C@H](Cc2ccccc2)NC(=O)[C@@H](NC(=O)c2ccc(Cl)s2)CCCSCc2cccc(n2)CSCCN1 [C3-X5-L1] | 64.7 | 75.1 |
| O=C1C[C@H]2CCCN2C(=O)[C@H](Cc2ccccc2)NC(=O)[C@@H](NC(=O)c2ccc(Cl)s2)CCCSC/C=C/CSCCN1 [C3-X5-L4] | 55.8 | 36.8 |
| O=C1C[C@H]2CCCN2C(=O)[C@H](Cc2ccccc2)NC(=O)[C@@H](NC(=O)c2ccc(Cl)s2)CCCSCc2cccc(c2)CSCCN1 [C3-X5-L5] | 84.2 | 60.5 |
| O=C1CSCCC[C@H](NC(=O)c2ccc(Cl)s2)C(=O)N[C@@H](Cc2ccccc2)C(=O)N2CCC[C@@H]2CC(=O)NCCSC1 [C3-X5-L7] | 73.4 | 33.5 |
| O=C1C[C@H]2CCCN2C(=O)[C@@H](Cc2ccccc2)NC(=O)[C@@H](NC(=O)c2ccc(Cl)s2)CCCSCc2cccc(n2)CSCCN1 [C3-X31-L1] | 96.1 | 92.4 |
| O=C1C[C@H]2CCCN2C(=O)[C@@H](Cc2ccccc2)NC(=O)[C@@H](NC(=O)c2ccc(Cl)s2)CCCSCCS(=O)(=O)CCSCCN1 [C3-X31-L2] | 103.5 | 93.7 |
| O=C1C[C@H]2CCCN2C(=O)[C@@H](Cc2ccccc2)NC(=O)[C@@H](NC(=O)c2ccc(Cl)s2)CCCSCc2ccc(cc2)CSCCN1 [C3-X31-L3] | 99.4 | 96.8 |
| O=C1C[C@H]2CCCN2C(=O)[C@@H](Cc2ccccc2)NC(=O)[C@@H](NC(=O)c2ccc(Cl)s2)CCCSC/C=C/CSCCN1 [C3-X31-L4] | 100.8 | 98.3 |
| O=C1C[C@H]2CCCN2C(=O)[C@@H](Cc2ccccc2)NC(=O)[C@@H](NC(=O)c2ccc(Cl)s2)CCCSCc2ccccc2CSCCN1 [C3-X31-L6] | 97.6 | 87.4 |
| O=C1CSCCC[C@H](NC(=O)c2ccc(Cl)s2)C(=O)N[C@H](Cc2ccccc2)C(=O)N2CCC[C@@H]2CC(=O)NCCSC1 [C3-X31-L7] | 102.1 | 99.4 |
| CN1C(=O)[C@@H](NC(=O)c2ccc(Cl)s2)CCCSCc2cccc(n2)CSCCNC(=O)C[C@H]2CCCN2C(=O)[C@@H]1Cc1ccccc1 [C3-X32-L1] | 99.5 | 98.5 |
| CN1C(=O)[C@@H](NC(=O)c2ccc(Cl)s2)CCCSCCS(=O)(=O)CCSCCNC(=O)C[C@H]2CCCN2C(=O)[C@@H]1Cc1ccccc1 [C3-X32-L2] | 103.4 | 103.4 |
| CN1C(=O)[C@@H](NC(=O)c2ccc(Cl)s2)CCCSC/C=C/CSCCNC(=O)C[C@H]2CCCN2C(=O)[C@@H]1Cc1ccccc1 [C3-X32-L4] | 101.4 | 100.1 |
| CN1C(=O)[C@@H](NC(=O)c2ccc(Cl)s2)CCCSCc2cccc(c2)CSCCNC(=O)C[C@H]2CCCN2C(=O)[C@@H]1Cc1ccccc1 [C3-X32-L5] | 103.6 | 103.6 |
| CN1C(=O)[C@@H](NC(=O)c2ccc(Cl)s2)CCCSCc2ccccc2CSCCNC(=O)C[C@H]2CCCN2C(=O)[C@@H]1Cc1ccccc1 [C3-X32-L6] | 99.5 | 96.0 |
| COc1ccc(C[C@@H]2NC(=O)[C@@H](NC(=O)c3ccc(Cl)s3)CCCSCCS(=O)(=O)CCSCCNC(=O)C[C@H]3CCCN3C2=O)cc1 [C3-X33-L2] | 105.7 | 97.1 |
| COc1ccc(C[C@@H]2NC(=O)[C@@H](NC(=O)c3ccc(Cl)s3)CCCSC/C=C/CSCCNC(=O)C[C@H]3CCCN3C2=O)cc1 [C3-X33-L4] | 105.1 | 97.8 |
| COc1ccc(C[C@@H]2NC(=O)[C@@H](NC(=O)c3ccc(Cl)s3)CCCSCc3cccc(c3)CSCCNC(=O)C[C@H]3CCCN3C2=O)cc1 [C3-X33-L5] | 101.3 | 103.0 |
| O=C1C[C@H]2CCCN2C(=O)[C@H](Cc2ccc(Cl)cc2)NC(=O)[C@@H](NC(=O)c2ccc(Cl)s2)CCCSCCS(=O)(=O)CCSCCN1 [C3-X34-L2] | 98.4 | 94.5 |
| O=C1C[C@H]2CCCN2C(=O)[C@H](Cc2ccc(Cl)cc2)NC(=O)[C@@H](NC(=O)c2ccc(Cl)s2)CCCSCc2ccc(cc2)CSCCN1 [C3-X34-L3] | 101.2 | 96.4 |
| O=C1C[C@H]2CCCN2C(=O)[C@H](Cc2ccc(Cl)cc2)NC(=O)[C@@H](NC(=O)c2ccc(Cl)s2)CCCSC/C=C/CSCCN1 [C3-X34-L4] | 100.7 | 91.1 |
